Organism: Rattus norvegicus
Assay: Open TG-GATES - Regimen: Single
Type: toxicity, organism-based, Sprague-Dawley
Set-up: regimen Single, gender Male, age 6 weeks
Conditions: in vivo, po, 0 mg/kg, route gavage, dose level Control; for APTT / Bas / Eos / Fbg / Hb / Ht / Lym / MCH / MCHC / MCV / Mono / Neu / PT / Plat / RBC / Ret / WBC: tissue Blood; for KIDNEY_L / KIDNEY_R / KIDNEY_TOTAL: tissue Kidney; for LIVER: tissue Liver; for A/G / ALP / ALT / AST / BUN / CRE / Ca / Cl / DBIL / GLC / IP / K / LDH / Na / PL / RALB / TBIL / TC / TG / TP / gamma-GTP: tissue Plasma

`C[C@](N)(Cc1ccc(O)c(O)c1)C(=O)O` [METHYLDOPA] gave a TERMINAL_BW (3 h) of 189.8 g, an APTT (3 h) of 16.9 s and a Bas (3 h) of 0%. The Eos (3 h) was 0.8%, the Fbg (3 h) was 253.4 mg/dL and the Hb (3 h) was 13.1 g/dL. The Ht (3 h) was 39.1%, the Lym (3 h) was 75% and the MCH (3 h) was 22.2 pg. It also gave an MCHC (3 h) of 33.4%, an MCV (3 h) of 66.5 fL and a Mono (3 h) of 3.2%. It also gave a Neu (3 h) of 20.4%, a PT (3 h) of 12.3 s and a Plat (3 h) of 118.6 x10_4/uL. The RBC (3 h) was 588.6 x10_4/ul, the Ret (3 h) was 11% and the WBC (3 h) was 80.9 x10_2/uL. It also gave a KIDNEY_L (3 h) of 0.8 g, a KIDNEY_R (3 h) of 0.8 g and a KIDNEY_TOTAL (3 h) of 1.6 g. For the same compound, the LIVER (3 h) was 8 g, the A/G (3 h) was 0.9 and the ALP (3 h) was 1671.4 IU/L. It also gave an ALT (3 h) of 54.6 IU/L, an AST (3 h) of 84.8 IU/L and a BUN (3 h) of 10 mg/dL. For the same compound, the CRE (3 h) was 0.2 mg/dL, the Ca (3 h) was 11.6 mg/dL and the Cl (3 h) was 106.8 meq/L. For the same compound, the DBIL (3 h) was 0.022 mg/dL, the GLC (3 h) was 164.4 mg/dL and the IP (3 h) was 9.4 mg/dL. For the same compound, the K (3 h) was 4.6 meq/L, the LDH (3 h) was 61.2 IU/L and the Na (3 h) was 141.8 meq/L. For the same compound, the PL (3 h) was 147.2 mg/dL, the RALB (3 h) was 2.6 g/dL and the TBIL (3 h) was 0.08 mg/dL. It also gave a TC (3 h) of 88 mg/dL, a TG (3 h) of 68.4 mg/dL and a TP (3 h) of 5.6 g/dL. The gamma-GTP (3 h) was 1.2 IU/L, the TERMINAL_BW (6 h) was 187.9 g and the APTT (6 h) was 17 s. The Bas (6 h) was 0%, the Eos (6 h) was 1% and the Fbg (6 h) was 266.8 mg/dL. For the same compound, the Hb (6 h) was 13.4 g/dL, the Ht (6 h) was 40.1% and the Lym (6 h) was 70.4%. It also gave an MCH (6 h) of 21.6 pg, an MCHC (6 h) of 33.5% and an MCV (6 h) of 64.5 fL. For the same compound, the Mono (6 h) was 3.8%, the Neu (6 h) was 24.4% and the PT (6 h) was 12.4 s. The Plat (6 h) was 120.7 x10_4/uL, the RBC (6 h) was 622.2 x10_4/ul and the Ret (6 h) was 9.7%. It also gave a WBC (6 h) of 82.2 x10_2/uL, a KIDNEY_L (6 h) of 0.8 g and a KIDNEY_R (6 h) of 0.8 g. The KIDNEY_TOTAL (6 h) was 1.6 g, the LIVER (6 h) was 7.3 g and the A/G (6 h) was 0.9. For the same compound, the ALP (6 h) was 1652.4 IU/L, the ALT (6 h) was 45.8 IU/L and the AST (6 h) was 74 IU/L. It also gave a BUN (6 h) of 8.4 mg/dL, a CRE (6 h) of 0.2 mg/dL and a Ca (6 h) of 11.2 mg/dL. It also gave a Cl (6 h) of 109 meq/L, a DBIL (6 h) of 0.014 mg/dL and a GLC (6 h) of 177.6 mg/dL. It also gave an IP (6 h) of 10.6 mg/dL, a K (6 h) of 4.6 meq/L and an LDH (6 h) of 54.2 IU/L. For the same compound, the Na (6 h) was 143.4 meq/L, the PL (6 h) was 128.4 mg/dL and the RALB (6 h) was 2.6 g/dL. It also gave a TBIL (6 h) of 0.076 mg/dL, a TC (6 h) of 81.2 mg/dL and a TG (6 h) of 43 mg/dL. It also gave a TP (6 h) of 5.6 g/dL, a gamma-GTP (6 h) of 1.2 IU/L and a TERMINAL_BW (9 h) of 189.5 g. For the same compound, the APTT (9 h) was 17.4 s, the Bas (9 h) was 0% and the Eos (9 h) was 1%. It also gave a Fbg (9 h) of 242 mg/dL, a Hb (9 h) of 12.7 g/dL and a Ht (9 h) of 37.7%. The Lym (9 h) was 75.4%, the MCH (9 h) was 21.7 pg and the MCHC (9 h) was 33.7%. For the same compound, the MCV (9 h) was 64.2 fL, the Mono (9 h) was 2.4% and the Neu (9 h) was 20.8%. For the same compound, the PT (9 h) was 13.6 s, the Plat (9 h) was 112.1 x10_4/uL and the RBC (9 h) was 588.8 x10_4/ul. It also gave a Ret (9 h) of 10.4%, a WBC (9 h) of 74.2 x10_2/uL and a KIDNEY_L (9 h) of 0.8 g. It also gave a KIDNEY_R (9 h) of 0.8 g, a KIDNEY_TOTAL (9 h) of 1.7 g and an LIVER (9 h) of 6.9 g. It also gave an A/G (9 h) of 0.9, an ALP (9 h) of 1737.2 IU/L and an ALT (9 h) of 44.4 IU/L. The AST (9 h) was 77.2 IU/L, the BUN (9 h) was 10.2 mg/dL and the CRE (9 h) was 0.1 mg/dL. It also gave a Ca (9 h) of 10.9 mg/dL, a Cl (9 h) of 108.2 meq/L and a DBIL (9 h) of 0.014 mg/dL. For the same compound, the GLC (9 h) was 182.6 mg/dL, the IP (9 h) was 11 mg/dL and the K (9 h) was 4.4 meq/L. It also gave an LDH (9 h) of 88 IU/L, a Na (9 h) of 143.2 meq/L and a PL (9 h) of 114.8 mg/dL. It also gave an RALB (9 h) of 2.4 g/dL, a TBIL (9 h) of 0.076 mg/dL and a TC (9 h) of 74.4 mg/dL. It also gave a TG (9 h) of 30.6 mg/dL, a TP (9 h) of 5.1 g/dL and a gamma-GTP (9 h) of 1.2 IU/L. For the same compound, the TERMINAL_BW (24 h) was 194.8 g, the APTT (24 h) was 17 s and the Bas (24 h) was 0%. For the same compound, the Eos (24 h) was 1%, the Fbg (24 h) was 237.6 mg/dL and the Hb (24 h) was 13 g/dL. For the same compound, the Ht (24 h) was 38.2%, the Lym (24 h) was 75.8% and the MCH (24 h) was 22 pg. The MCHC (24 h) was 34.1%, the MCV (24 h) was 64.4 fL and the Mono (24 h) was 3.4%. The Neu (24 h) was 19.4%, the PT (24 h) was 12.8 s and the Plat (24 h) was 113.1 x10_4/uL. The RBC (24 h) was 594.4 x10_4/ul, the Ret (24 h) was 9.5% and the WBC (24 h) was 77.2 x10_2/uL. For the same compound, the KIDNEY_L (24 h) was 0.9 g, the KIDNEY_R (24 h) was 0.9 g and the KIDNEY_TOTAL (24 h) was 1.8 g. The LIVER (24 h) was 8.8 g, the A/G (24 h) was 0.9 and the ALP (24 h) was 1858.4 IU/L. The ALT (24 h) was 55.2 IU/L, the AST (24 h) was 83 IU/L and the BUN (24 h) was 13 mg/dL. For the same compound, the CRE (24 h) was 0.2 mg/dL, the Ca (24 h) was 11 mg/dL and the Cl (24 h) was 107.2 meq/L. The DBIL (24 h) was 0.008 mg/dL, the GLC (24 h) was 183.6 mg/dL and the IP (24 h) was 7.8 mg/dL. For the same compound, the K (24 h) was 4.3 meq/L, the LDH (24 h) was 69.8 IU/L and the Na (24 h) was 142 meq/L. The PL (24 h) was 128.6 mg/dL, the RALB (24 h) was 2.5 g/dL and the TBIL (24 h) was 0.062 mg/dL. For the same compound, the TC (24 h) was 72.6 mg/dL, the TG (24 h) was 58.2 mg/dL and the TP (24 h) was 5.3 g/dL. It also gave a gamma-GTP (24 h) of 1 IU/L.

Source: ChEMBL document CHEMBL3885861, “Open TG-GATES”
